Test results: patent US7393812B2, “Methylidene mevalonates and their use as herbicides” (Dow AgroSciences LLC, priority 2004, dated 2008)

How the values were obtained:
Test in all cases: Post-emergent evaluation
Type in all cases: in vivo
Details in all cases: after 2 weeks
[1] = tested on: blackgrass (Alopecurus myosuroides, ALOMY)
Description: (§1) Seeds of the desired test plant species were planted in Grace-Sierra MetroMix® 306 planting mixture, which typically has a pH of 6.0 to 6.8 and an organic matter content of about 30 percent, in plastic pots with a surface area of 64 square centimeters. When required to ensure good germination and healthy plants, a fungicide treatment and/or other chemical or physical treatment was applied. The plants were grown for 7-21 days in a greenhouse with an approximate 15 hr photoperiod which was maintained at about 23-29° C. during the day and 22-28° C. during the night. Nutrients and water were added on a regular basis and supplemental lighting was provided with overhead metal halide 1000-Watt lamps as necessary. The plants were employed for testing when they reached the first or second true leaf stage.
(§2) A weighed amount, determined by the highest rate to be tested, of each test compound was placed in a 20 mL glass vial and was dissolved in 4 mL of a 97:3 v/v (volume/volume) mixture of acetone and dimethyl sulfoxide (DMSO) to obtain concentrated stock solutions. […] The concentrated stock solutions obtained were diluted with an aqueous mixture containing acetone, water, isopropyl alcohol, DMSO, Atplus 411F crop oil concentrate, and Triton X-155 surfactant in a 48.5:39:10:1.5:1.0:0.02 v/v ratio to obtain spray solutions of known concentration. The solutions containing the highest concentration to be tested were prepared by diluting 2 mL aliquots of the stock solution with 13 mL of the mixture and lower concentrations were prepared by serial dilution of the stock solution. Approximately 1.5 mL aliquots of each solution of known concentration were sprayed evenly onto each of the test plant pots using a DeVilbiss atomizer driven by compressed air pressure of 2 to 4 psi ([…]) to obtain thorough coverage of each plant. Control plants were sprayed in the same manner with the aqueous mixture. In this test an application rate of 1 ppm results in the application of approximately 1 g/Ha.
(§3) The treated plants and control plants were placed in a greenhouse as described above and watered by sub-irrigation to prevent wash-off of the test compounds. After 2 weeks the condition of the test plants as compared with that of the untreated plants was determined visually and scored on a scale of 0 to 100 percent where 0 corresponds to no injury and 100 corresponds to complete kill. Species abbreviations as described for Table I with the following additions: soybean (Glycine max, GLXMA), rape (Brassica napus, BRSNN), chickweed (Stellaria media, STEME), cocklebur (Xanthium strumarium XANST), lambsquarters (Chenopodium album, CHEAL), violet (Viola tricolor, VIOTR), bindweed (Polygonum convolvulus, POLCO), spurge (Euphorbia heterophylla, EPHHL), Canada thistle (Cirsium arvense, CIRAR), corn (Zea mays, ZEAMX), rice (Oryza sativa, ORYSA), wheat (Triticum aestivum, TRZAS), crabgrass (Digitaria sanguinalis, DIGSA), shattercane (Sorghum vulgare, SORVU) and yellow nutsedge (Cyperus esculentus, CYPES).

[2] = tested on: rape (Brassica napus, BRSNN)
Description: as §1, §2, §3

[3] = tested on: wheat (Triticum aestivum, TRZAS)
Description: as §1, §2, §3

[4] = tested on: lambsquarters (Chenopodium album, CHEAL)
Description: as §1, §2, §3

[5] = tested on: Canada thistle (Cirsium arvense, CIRAR)
Description: as §1, §2, §3

[6] = tested on: cocklebur (Xanthium strumarium XANST)
Description: as §1, §2, §3

[7] = tested on: spurge (Euphorbia heterophylla, EPHHL)
Description: as §1, §2, §3

[8] = tested on: rice (Oryza sativa, ORYSA)
Description: as §1, §2, §3

[9] = tested on: soybean (Glycine max, GLXMA)
Description: as §1, §2, §3

corn (Zea mays, ZEAMX) = tested on: corn (Zea mays, ZEAMX)
Description: as §1, §2, §3

[10] = tested on: pigweed (Amaranthus spp., AMARE)
Description: as §1, §2, §3

[11] = tested on: bindweed (Polygonum convolvulus, POLCO)
Description: as §1, §2, §3

[12] = tested on: wild oats (Avena fatua, AVEFA)
Description: as §1, §2, §3

## C=C(CO)C(C)(O)CC(=O)O (centres unmarked) [methylidene mevalonate, 3-hydroxy-4-(hydroxymethyl)-3-methylpent-4-enoic acid]
[1]; spray concentration 125 ppm
  Postemergent % Control: 0%
[1]; spray concentration 250 ppm
  Postemergent % Control: 20%
[1]; spray concentration 500 ppm
  Postemergent % Control: 60%
[1]; spray concentration 1000 ppm
  Postemergent % Control: 70%
[1]; spray concentration 2000 ppm
  Postemergent % Control: 80%
[2]; spray concentration 125 ppm
  Postemergent % Control: 0%
[2]; spray concentration 250 ppm
  Postemergent % Control: 10%
[2]; spray concentration 500 ppm
  Postemergent % Control: 50%
[2]; spray concentration 1000 ppm
  Postemergent % Control: 50%
[2]; spray concentration 2000 ppm
  Postemergent % Control: 60%
[3]; spray concentration 125 ppm
  Postemergent % Control: 0%
[3]; spray concentration 250 ppm
  Postemergent % Control: 20%
[3]; spray concentration 500 ppm
  Postemergent % Control: 20%
[3]; spray concentration 1000 ppm
  Postemergent % Control: 70%
[3]; spray concentration 2000 ppm
  Postemergent % Control: 80%
[4]; spray concentration 125 ppm
  Postemergent % Control: 0%
[4]; spray concentration 250 ppm
  Postemergent % Control: 0%
[4]; spray concentration 500 ppm
  Postemergent % Control: 10%
[4]; spray concentration 1000 ppm
  Postemergent % Control: 50%
[4]; spray concentration 2000 ppm
  Postemergent % Control: 80%
[5]; spray concentration 125 ppm
  Postemergent % Control: 10%
[5]; spray concentration 250 ppm
  Postemergent % Control: 10%
[5]; spray concentration 500 ppm
  Postemergent % Control: 20%
[5]; spray concentration 1000 ppm
  Postemergent % Control: 40%
[5]; spray concentration 2000 ppm
  Postemergent % Control: 50%
[6]; spray concentration 125 ppm
  Postemergent % Control: 0%
[6]; spray concentration 250 ppm
  Postemergent % Control: 5%
[6]; spray concentration 500 ppm
  Postemergent % Control: 10%
[6]; spray concentration 1000 ppm
  Postemergent % Control: 20%
[6]; spray concentration 2000 ppm
  Postemergent % Control: 20%
[7]; spray concentration 125 ppm
  Postemergent % Control: 30%
[7]; spray concentration 250 ppm
  Postemergent % Control: 30%
[7]; spray concentration 500 ppm
  Postemergent % Control: 50%
[7]; spray concentration 1000 ppm
  Postemergent % Control: 60%
[7]; spray concentration 2000 ppm
  Postemergent % Control: 70%
[8]; spray concentration 125 ppm
  Postemergent % Control: 0%
[8]; spray concentration 250 ppm
  Postemergent % Control: 30%
[8]; spray concentration 500 ppm
  Postemergent % Control: 40%
[8]; spray concentration 1000 ppm
  Postemergent % Control: 80%
[8]; spray concentration 2000 ppm
  Postemergent % Control: 80%
[9]; spray concentration 125 ppm
  Postemergent % Control: 20%
[9]; spray concentration 250 ppm
  Postemergent % Control: 20%
[9]; spray concentration 500 ppm
  Postemergent % Control: 50%
[9]; spray concentration 1000 ppm
  Postemergent % Control: 80%
[9]; spray concentration 2000 ppm
  Postemergent % Control: 80%
Corn (Zea mays, ZEAMX); spray concentration 125 ppm
  Postemergent % Control: 0%
Corn (Zea mays, ZEAMX); spray concentration 250 ppm
  Postemergent % Control: 20%
Corn (Zea mays, ZEAMX); spray concentration 500 ppm
  Postemergent % Control: 60%
Corn (Zea mays, ZEAMX); spray concentration 1000 ppm
  Postemergent % Control: 98%
Corn (Zea mays, ZEAMX); spray concentration 2000 ppm
  Postemergent % Control: 98%
[10]; spray concentration 125 ppm
  Postemergent % Control: 10%
[10]; spray concentration 250 ppm
  Postemergent % Control: 30%
[10]; spray concentration 500 ppm
  Postemergent % Control: 100%
[10]; spray concentration 1000 ppm
  Postemergent % Control: 100%
[10]; spray concentration 2000 ppm
  Postemergent % Control: 100%
[11]; spray concentration 125 ppm
  Postemergent % Control: 20%
[11]; spray concentration 250 ppm
  Postemergent % Control: 20%
[11]; spray concentration 500 ppm
  Postemergent % Control: 85%
[11]; spray concentration 1000 ppm
  Postemergent % Control: 90%
[11]; spray concentration 2000 ppm
  Postemergent % Control: 95%
[12]; spray concentration 125 ppm
  Postemergent % Control: 0%
[12]; spray concentration 250 ppm
  Postemergent % Control: 0%
[12]; spray concentration 500 ppm
  Postemergent % Control: 20%
[12]; spray concentration 1000 ppm
  Postemergent % Control: 85%
[12]; spray concentration 2000 ppm
  Postemergent % Control: 90%
